Measured values reported in PMC7853427 (Journal of the American Chemical Society, 2021).

Target: E. coli PheRS (Escherichia coli, UniProt P08312)
Assay: inhibition of Phe activation by purified PheRS
Type: biochemical

Chain of E. coli PheRS (P08312 whole entry): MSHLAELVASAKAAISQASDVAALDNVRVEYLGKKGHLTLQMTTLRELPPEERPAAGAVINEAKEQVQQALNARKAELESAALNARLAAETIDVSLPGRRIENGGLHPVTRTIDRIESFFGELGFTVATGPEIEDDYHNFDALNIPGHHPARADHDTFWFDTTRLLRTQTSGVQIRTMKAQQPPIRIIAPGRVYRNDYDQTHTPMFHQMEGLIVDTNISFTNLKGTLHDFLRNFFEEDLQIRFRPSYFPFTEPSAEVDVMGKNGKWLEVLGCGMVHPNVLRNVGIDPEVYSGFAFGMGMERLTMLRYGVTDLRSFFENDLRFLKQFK
Chain of E. coli PheRS (P07395 whole entry partner): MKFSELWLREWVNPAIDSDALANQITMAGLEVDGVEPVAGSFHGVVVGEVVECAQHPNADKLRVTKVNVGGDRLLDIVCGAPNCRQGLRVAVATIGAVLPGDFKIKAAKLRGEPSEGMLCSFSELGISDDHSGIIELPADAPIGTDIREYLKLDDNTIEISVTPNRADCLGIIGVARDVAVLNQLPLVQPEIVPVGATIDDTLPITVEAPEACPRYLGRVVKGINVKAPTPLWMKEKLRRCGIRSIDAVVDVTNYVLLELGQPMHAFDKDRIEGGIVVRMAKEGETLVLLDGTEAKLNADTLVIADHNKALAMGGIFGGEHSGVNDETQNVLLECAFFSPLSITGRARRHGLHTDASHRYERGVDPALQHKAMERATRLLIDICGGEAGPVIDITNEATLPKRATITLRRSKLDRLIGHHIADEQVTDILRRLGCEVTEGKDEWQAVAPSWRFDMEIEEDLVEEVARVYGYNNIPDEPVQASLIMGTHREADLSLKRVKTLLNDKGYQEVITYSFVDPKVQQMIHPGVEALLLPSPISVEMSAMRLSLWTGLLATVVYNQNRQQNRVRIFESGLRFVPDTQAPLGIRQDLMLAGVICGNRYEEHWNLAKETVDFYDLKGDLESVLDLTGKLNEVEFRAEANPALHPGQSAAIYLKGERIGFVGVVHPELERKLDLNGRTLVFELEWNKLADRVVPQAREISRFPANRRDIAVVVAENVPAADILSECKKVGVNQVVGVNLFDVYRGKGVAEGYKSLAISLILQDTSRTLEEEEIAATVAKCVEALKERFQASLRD

CC(Cc1ccccc1)NCc1ccccc1 (stereo not shown) [compound 20, norbenzamphetamine]
IC50: 169 µM
